This passage reports TGI results from PubChem BioAssay (NCI).

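Each compound was tested at five concentrations against cells in 96-well plates for 48 hours. TGI marks complete inhibition of growth.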

Among the test systems are A498 renal; A549 NSCLC; HCT-116 colon; HOP-92 NSCLC; HT29 colon; NCI-H23 lung; NCI-H460 lung; NCI-H522 lung; OVCAR-3 ovarian; OVCAR-4 ovarian; OVCAR-5 ovarian; RPMI-8226 leukemia; SF-539 CNS; SK-MEL-2 melanoma; SN12C renal; SNB-19 CNS; SNB-75 CNS; SR leukemia; SW-620 colon.
Holding throughout (test): NCI tumour cell line growth inhibition, 48 h

On to `OC1[C@@H]2[C@@H](O)[C@H](O)[C@@H](O)N2C[C@@H]1O` (some centres undefined), for which the TGI in the experiment with A498 renal, in the experiment on A549 NSCLC, in the experiment on HCT-116 colon, with HOP-92 NSCLC, with HT29 colon and in the experiment on NCI-H23 lung was > 100 µM in each case. The TGI in the experiment on NCI-H460 lung is > 100 µM; in the experiment with NCI-H522 lung it was > 100 µM; in the experiment on OVCAR-3 ovarian it was > 100 µM; in the experiment on OVCAR-4 ovarian, > 100 µM; with OVCAR-5 ovarian, > 100 µM; in the experiment with RPMI-8226 leukemia, > 23.5 µM. Further, the TGI with SF-539 CNS was > 100 µM; with SK-MEL-2 melanoma it was > 100 µM; with SN12C renal, > 100 µM; in the experiment with SNB-19 CNS, > 100 µM; in the experiment with SNB-75 CNS, > 100 µM; with SR leukemia, > 43.6 µM. Also, in the experiment on SW-620 colon, the TGI is > 100 µM.

Turning to `COC(=O)c1cc2c3c(ccc2[nH]1)N(C(=O)c1cc2cc(OC)c(OC)c(OC)c2[nH]1)CC3CCl` (centres undefined), the TGI was > 100 µM with A498 renal; > 100 µM in the experiment on A549 NSCLC; > 100 µM in the experiment with HCT-116 colon; > 100 µM in the experiment with HOP-92 NSCLC; > 75.8 µM in the experiment on HT29 colon; > 100 µM in the experiment with NCI-H23 lung. Besides, the TGI is > 100 µM in the experiment on NCI-H460 lung; > 100 µM with NCI-H522 lung; > 100 µM with OVCAR-3 ovarian; > 100 µM in the experiment on OVCAR-4 ovarian; > 100 µM in the experiment on OVCAR-5 ovarian; > 21.5 µM in the experiment with RPMI-8226 leukemia. Also, the TGI in the experiment with SF-539 CNS was > 79.2 µM; with SK-MEL-2 melanoma it was > 100 µM; in the experiment on SNB-19 CNS, > 100 µM; with SNB-75 CNS, > 100 µM; with SR leukemia it was > 100 µM; in the experiment on SW-620 colon, > 100 µM.

As to `CC(=O)N(C)c1ccc(Nc2cc(C)[nH]c3ccc4ncnc4c23)cc1`, the TGI with A498 renal was 25.2 µM; in the experiment on A549 NSCLC, 21.7 µM; with HCT-116 colon, 16.5 µM; with HOP-92 NSCLC, 14.7 µM; with HT29 colon, 34 µM; with NCI-H23 lung it was 28 µM. Also, the TGI was found to be 12.3 µM with NCI-H460 lung; 21.6 µM in the experiment on NCI-H522 lung; 27.5 µM in the experiment on OVCAR-3 ovarian; 34 µM with OVCAR-4 ovarian; 29.4 µM in the experiment on OVCAR-5 ovarian; 82.7 µM in the experiment on RPMI-8226 leukemia. In addition, the TGI in the experiment with SF-539 CNS amounted to 18.6 µM; with SK-MEL-2 melanoma, 23.2 µM; in the experiment on SN12C renal it was 34.9 µM; in the experiment with SNB-19 CNS it was 42.4 µM; in the experiment on SNB-75 CNS, 30 µM; in the experiment on SR leukemia it was 23 µM. The TGI with SW-620 colon came out at 22.1 µM.

For the compound `CCCC[C@@H]1CCN2C[C@@H](O)[C@@H](O)[C@@H]2[C@H]1O`, the TGI in the experiment with A498 renal, in the experiment with A549 NSCLC, in the experiment with HCT-116 colon, in the experiment with HOP-92 NSCLC, in the experiment with HT29 colon and in the experiment with NCI-H23 lung was > 100 µM each time. In addition, the TGI in the experiment with NCI-H460 lung, in the experiment on NCI-H522 lung, with OVCAR-3 ovarian, in the experiment with OVCAR-4 ovarian, in the experiment on OVCAR-5 ovarian and in the experiment with RPMI-8226 leukemia was > 100 µM in each case. Further, the TGI in the experiment with SF-539 CNS, in the experiment with SK-MEL-2 melanoma, in the experiment with SN12C renal, with SNB-19 CNS, with SNB-75 CNS and with SR leukemia was > 100 µM throughout. Moreover, the TGI with SW-620 colon was > 100 µM.

Consider `CCOC(=O)c1c(NC(=O)c2cccs2)sc2c1CCCC2`, for which the TGI with A498 renal was > 96.3 µM; in the experiment on A549 NSCLC, > 100 µM; in the experiment with HCT-116 colon, > 100 µM; with HOP-92 NSCLC it was > 100 µM; with HT29 colon it was > 100 µM; in the experiment with NCI-H23 lung it was > 100 µM. Besides, the TGI with NCI-H460 lung, in the experiment with NCI-H522 lung, in the experiment with OVCAR-3 ovarian, in the experiment with OVCAR-4 ovarian, in the experiment on OVCAR-5 ovarian and with RPMI-8226 leukemia was > 100 µM throughout. Further, the TGI in the experiment on SF-539 CNS was 57.4 µM; with SK-MEL-2 melanoma, > 100 µM; in the experiment with SN12C renal it was > 100 µM; with SNB-19 CNS, > 81.2 µM; in the experiment on SNB-75 CNS, 81.8 µM; in the experiment on SR leukemia, > 100 µM. The TGI in the experiment on SW-620 colon is > 100 µM.

`CC(=O)Nc1ccc(N2C(=O)/C(=C\c3cccc(Oc4ccccc4)c3)S(=O)(=O)C2c2ccccc2)cc1` (centres undefined): the TGI with A498 renal, in the experiment on A549 NSCLC, with HCT-116 colon, in the experiment on HOP-92 NSCLC, in the experiment with HT29 colon and in the experiment with NCI-H23 lung was > 100 µM in each case. For the same compound, the TGI in the experiment on NCI-H460 lung is > 100 µM; in the experiment with NCI-H522 lung it was > 100 µM; in the experiment with OVCAR-3 ovarian it was > 100 µM; in the experiment on OVCAR-4 ovarian, > 100 µM; in the experiment on OVCAR-5 ovarian, > 100 µM; in the experiment on RPMI-8226 leukemia, 66.8 µM. The TGI in the experiment on SF-539 CNS was 62.5 µM; in the experiment with SK-MEL-2 melanoma, > 100 µM; with SN12C renal, > 100 µM; with SNB-19 CNS it was > 100 µM; with SNB-75 CNS it was > 100 µM; in the experiment with SR leukemia, > 100 µM. Also, in the experiment with SW-620 colon, the TGI was > 100 µM.

In the case of `C=C1C(=O)C[C@H]2C(=C)C(=O)O[C@@H]2C2C1CC[C@@]2(C)O` (some centres undefined), the TGI was > 100 µM with A498 renal; > 100 µM in the experiment with A549 NSCLC; > 100 µM in the experiment on HCT-116 colon; > 100 µM in the experiment on HOP-92 NSCLC; 41.1 µM in the experiment on HT29 colon; 59.4 µM with NCI-H23 lung. Besides, the TGI in the experiment on NCI-H460 lung is 43.1 µM; in the experiment on NCI-H522 lung, 41.4 µM; in the experiment on OVCAR-3 ovarian, 35.8 µM; in the experiment on OVCAR-5 ovarian it was > 100 µM; in the experiment on RPMI-8226 leukemia it was > 100 µM; with SF-539 CNS, > 100 µM. Besides, the TGI is 56.6 µM with SK-MEL-2 melanoma; > 100 µM in the experiment with SN12C renal; > 100 µM in the experiment with SNB-19 CNS; > 100 µM in the experiment on SNB-75 CNS; > 100 µM with SR leukemia; > 100 µM in the experiment on SW-620 colon.

On to `COC(=O)C1=C(C)NC2=C(C(=O)c3ccccc32)C1c1cn(-c2ccccc2)nc1-c1ccccc1` (centres undefined), for which the TGI in the experiment with A498 renal was > 100 µM; in the experiment with A549 NSCLC, > 100 µM; in the experiment on HCT-116 colon, > 100 µM; with HOP-92 NSCLC it was > 100 µM; in the experiment on HT29 colon, > 30.5 µM; with NCI-H23 lung it was > 100 µM. The TGI in the experiment with NCI-H522 lung, with OVCAR-3 ovarian, in the experiment on OVCAR-4 ovarian, with OVCAR-5 ovarian, in the experiment on RPMI-8226 leukemia and in the experiment on SF-539 CNS was > 100 µM throughout. The TGI in the experiment with SK-MEL-2 melanoma was > 100 µM; in the experiment on SN12C renal it was > 100 µM; with SNB-19 CNS it was > 100 µM; in the experiment on SNB-75 CNS, > 100 µM; with SR leukemia, > 21.6 µM; in the experiment on SW-620 colon it was > 100 µM.
